For orientation: IC50 means the concentration at which inhibition is half-maximal.

The target of the assay is Inward rectifier potassium channel 2 (Mus musculus) (UniProt P35561). Kind of assay: Kir2.1 current blockers by manual electrophysiology, SAR follow-up, orthogonal assay, manual whole-cell patch clamp, extended SAR, set 1 (AID 504828). As to conditions: Kir2.1-expressing cells, -100 mV.
Chain of Inward rectifier potassium channel 2 (Mus musculus) (P35561 whole entry, looked up): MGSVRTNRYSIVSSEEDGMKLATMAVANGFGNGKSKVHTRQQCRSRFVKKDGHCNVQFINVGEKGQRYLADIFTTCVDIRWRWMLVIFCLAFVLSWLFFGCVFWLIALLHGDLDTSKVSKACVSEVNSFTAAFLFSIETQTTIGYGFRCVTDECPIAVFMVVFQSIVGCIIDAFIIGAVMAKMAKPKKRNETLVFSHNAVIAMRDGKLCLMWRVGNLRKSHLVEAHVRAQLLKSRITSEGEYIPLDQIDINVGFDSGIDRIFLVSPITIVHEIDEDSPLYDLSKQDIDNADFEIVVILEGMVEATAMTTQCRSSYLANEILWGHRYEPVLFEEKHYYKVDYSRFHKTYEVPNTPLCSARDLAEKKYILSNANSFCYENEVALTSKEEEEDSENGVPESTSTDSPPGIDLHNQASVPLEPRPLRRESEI
Turning to `CC(NS(=O)(=O)c1ccc(Br)cc1)c1ccccc1` (stereo unspecified), the IC50 was 8.82 µM. Take `Cc1noc(C)c1COC(=O)CCN1c2ccccc2Sc2ccccc21`: the IC50 is 3.21 µM. Regarding `O=S(=O)(c1ccc(F)cc1)N1CCCc2ccccc21`, the IC50 is 11.1 µM. With `Cc1ccc2nc(NCc3ccccc3)[nH]c2c1`, the IC50 is 16.6 µM. For the compound `CC(O)CNCCCOc1cccc(Oc2ccccc2)c1` (stereo unspecified), the IC50 was 4.12 µM. Take `Cc1ccc(C)c(OCCCNCc2ccccc2)c1`: the IC50 is 5.94 µM.

The record behind these values is PubChem BioAssay AID504828 (Johns Hopkins Ion Channel Center, 2011).
